Source: US8158165B2, “Preventative treatment and remission of allergic diseases” (CSIR, priority 2006, dated 2012)

Columns and labels:
[1] = target: T1, human glucocorticoid receptors (Homo sapiens, UniProt P04150); test: glucocorticoid receptor (GR) binding assay, [3H]Dexamethasone, HeLa S3 cells
T1 construct: endogenous in cells; host or cells: HeLa S3 (human cervix carcinoma) cells
T1 sequence (P04150 1-777): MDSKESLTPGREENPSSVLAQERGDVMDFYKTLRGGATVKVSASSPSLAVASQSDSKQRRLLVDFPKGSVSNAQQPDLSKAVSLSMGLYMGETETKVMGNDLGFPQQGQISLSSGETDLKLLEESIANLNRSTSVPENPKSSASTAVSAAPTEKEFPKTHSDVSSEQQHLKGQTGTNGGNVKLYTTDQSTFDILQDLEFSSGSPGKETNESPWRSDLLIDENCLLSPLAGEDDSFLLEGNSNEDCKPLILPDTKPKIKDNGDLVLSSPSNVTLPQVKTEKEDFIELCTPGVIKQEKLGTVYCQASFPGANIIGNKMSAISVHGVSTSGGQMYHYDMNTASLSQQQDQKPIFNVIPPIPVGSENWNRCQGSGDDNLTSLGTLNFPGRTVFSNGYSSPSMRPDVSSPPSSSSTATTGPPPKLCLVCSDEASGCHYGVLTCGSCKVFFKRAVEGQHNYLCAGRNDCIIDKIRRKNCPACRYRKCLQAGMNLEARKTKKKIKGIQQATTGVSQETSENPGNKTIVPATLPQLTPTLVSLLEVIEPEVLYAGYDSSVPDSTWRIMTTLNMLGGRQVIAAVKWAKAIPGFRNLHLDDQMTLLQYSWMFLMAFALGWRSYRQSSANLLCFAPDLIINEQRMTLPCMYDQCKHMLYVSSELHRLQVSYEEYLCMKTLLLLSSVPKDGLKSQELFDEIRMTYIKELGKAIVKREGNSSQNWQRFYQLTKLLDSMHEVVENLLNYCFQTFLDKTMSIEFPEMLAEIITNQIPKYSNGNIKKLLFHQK
Text: Biochemical assay results as presented herein are reflected as the percent inhibition of specific binding or activity of a compound. The assay is described in Cidlowski, J. A. and Cidlowski, N. B., Regulation of glucocorticoid receptors by glucocorticoids in cultured HeLa S3 cells. Endocrinology 109: 1975-1982, 1981, the contents of which are incorporated herein by way of reference. This assay specifically measures the ability of active glucocorticoids in glucocorticoid receptor downregulation.
This assay measures binding of [^3H]Dexamethasone to human glucocorticoid receptors. HeLa S3 cells are suspended in modified HEPES buffer, pH 7.2, using standard techniques.
The cells (1×10^6) are incubated with 6 nM [^3H]Dexamethasone for 120 minutes at 25° C. Non-specific binding is estimated in the presence of 20 μM Dexamethasone. Membranes are filtered and washed three times and the filters are counted to determine [^3H]Dexamethasone specifically bound. Compounds are screened at 10 μM for activity.

IL-5 = test: Mediator Release, IL-5 (ConA-stimulated PBMNL cells); format: cell-based, human
Protocol: As regards the human IL-5 mediator release text, the test compound is incubated with Concanavalin A (ConA) (10 μg/ml)-stimulated human peripheral blood mononuclear leukocyte (PBMNL) cells in growth medium RPMI-1640 (pH 7.4) overnight at 37° C. in an incubator. The IL-5 cytokine production levels in the conditioned medium are quantified using a sandwich ELISA kit. […] These same concentrations are concurrently applied to a separate group of treated cells and evaluated for possible compound-induced cytotoxicity only if significant inhibition of release is observed. Dexamethasone is used as standard reference agent.

IC50 [1]: 50.3 µM | Ki [1]: 22.8 µM | inhibition at 100 µM ([1]; 100 μM): 70% | inhibition at 100 µg/mL ([1]; 100 μg/ml): 104% | nH Glucocorticoid ([1]; Hill coefficient): 1.4 | EC50 (IL-5; Homo sapiens): 16.1 µM | IC50 (IL-5; Homo sapiens, as worded, read-out: IC50 mediator release Interleukin-5 (IL-5) inhibition assay): 16.1 µM
SMILES: Cc1coc2c1C[C@H]1[C@H](C)C=CC(=O)[C@]1(C)C2 (relative stereo) [compound 1, 4,4a,5,9-tetrahydro-3,5,8a-trimethylnaptho[2,3-b]furan-8-one]
ANT. Mediator Release, IL-5 (IL-5; 10 nM): 17% | ANT. Mediator Release, IL-5 (IL-5; 0.1 μM): 18% | ANT. Mediator Release, IL-5 (IL-5; 1 μM): 25% | ANT. Mediator Release, IL-5 (IL-5; 10 μM): 36% | ANT. Mediator Release, IL-5 (IL-5; 100 μM): 93% | ANT. Mediator Release, IL-5 (IL-5; 100 μg/ml (Table 13)): 93%
